How the values were obtained:
Assay in all cases: CCK-8 cell proliferation/cytotoxicity assay
Assay type in all cases: cell-based
AML12 normal liver cells = settings: Mus musculus, AML12, 24 h, 24 h treatment
Method: (§1) Cell proliferation was detected using the Cell Counting Kit-8 (CCK-8, Cat. CK04-13; Dojindo Laboratories, Kumamoto, Japan) according to the manufacturer’s instruction. To evaluate cytotoxicity, cells were seeded in a 96-well plate (FHC, 1 × 10^4 cells/well; Caki-2, PLC/PFR.5, and MCF 10A, 1 × 10^4 cells/well; AML12, HepG2, Hep3B, and Huh-7 1.2 × 10^4 cells/well; HeLa, HEK-293, A549, and PC-3, 1.5 × 10^4 cells/well; HT-29, MCF-7, C6, and NE-4C, 2 × 10^4 cells/well). After attachment and stabilization of cells for 24 h, the medium was switched with fresh containing various concentrations (0, 1, 5, 10, 25, 50, and 100 μM) of MBP-11901, and cells were incubated for 22 h. Next, CCK-8 solution was added to each well, and cells were incubated for another 2 h. Absorbance was then measured at 450 nm using a microplate reader (SpectraMax i3, Molecular Devices, San Jose, CA, USA). The IC50 and log IC50 values were calculated using GraphPad Prism (version 5.02; GraphPad PRISM software Inc. San Diego, CA, USA). All experiments were independently performed 3 times. The graph of log IC50 values represents average values.

Hep3B = settings: Homo sapiens, 24 h treatment
Method: as §1

HepG2 = settings: Homo sapiens; HepG2, 24 h treatment
Method: as §1

Huh-7 = settings: Homo sapiens; Huh-7, 24 h treatment
Method: as §1

PLC/PRF5 = settings: Homo sapiens, PLC-PRF-5; PLC/PRF5, 24 h treatment
Method: as §1

CNC(=O)c1cc(Oc2ccc(NC(=O)Nc3ccc(Cl)c(C(F)(F)F)c3)cc2)ccn1 [sorafenib, reference compound]
IC50 (AML12 normal liver cells): 13.4 ± 2.77 µM
IC50 (Hep3B): 3.64 ± 0.99 µM
IC50 (HepG2): 3.85 ± 0.14 µM
IC50 (Huh-7): 6.47 ± 0.88 µM
IC50 (PLC/PRF5): 6.81 ± 0.76 µM

Reference: article PMC9030223, “MBP-11901 Inhibits Tumor Growth of Hepatocellular Carcinoma through Multitargeted Inhibition of Receptor Tyrosine Kinases” (Cancers, 2022)
